Test results reported in patent US20080312086A1, “PEST CONTROL SHEET” (MAKHTESHIM CHEMICAL WORKS LTD., priority 2000, published 2008).

Experiments:
[1] = test system: watermelon crop; test: Watermelon crop development under the pest control sheet; format: in vivo
From the text: (§1) The present invention further provides a method for pest control. Said method may be applied in agriculture, horticulture or in garden maintenance. In agriculture and horticulture said method is applied as follows: subsequent to physically preparing the field and soil for planting, e.g. plowing, fumigating the soil and laying down of an irrigation system, the sheet is spread over the field so as to cover the soil [FIG. II, (1)], and is then secured to the ground. The sheet [FIG. II, (2), (3)] is then punctured at the spot where a seedling is intended to be planted so that a seedling [FIG. II, (4)] may be inserted through the hole [FIG. II, (5)] and planted in the soil. […] When the sheet contains a pesticide in the top layer, then pest control is maintained above the soil, in the area of the plant. This may also help in protecting the fruit/vegetable itself. Said method can be applied in gardens in a similar manner as described above. The sheet and method of the present invention have been applied to a watermelon crop. The experiments were conducted with three different concentrations of herbicide in the bottom layer.

[2] = test system: weeds; test: Weed control by the pest control sheet in a watermelon crop; format: in vivo
From the text: as §1

[3] = 0.5 weight % of pesticide in bottom layer of sheet
[4] = 1 weight % of pesticide in bottom layer of sheet
[5] = 2 weight % of pesticide in bottom layer of sheet

CCOc1cc(Oc2ccc(C(F)(F)F)cc2Cl)ccc1[N+](=O)[O-] [Oxyfluorfen, 2-chloro-a,a,a-trifluoro-p-tolyl 3-ethoxy-4-nitrophenyl ether]
100%: Development (% of crop development in comparison to healthy crop on a scale of 0-100, 100 indicating a healthy crop) [1, 3] | Development (% of crop development in comparison to healthy crop on a scale of 0-100, 100 indicating a healthy crop) [1, 4] | Development (% of crop development in comparison to healthy crop on a scale of 0-100, 100 indicating a healthy crop) [1, 5] | Weed control (% of weed control on a scale of 0-100, 100 indicating total prevention of weed emergence) [2, 3] | Weed control (% of weed control on a scale of 0-100, 100 indicating total prevention of weed emergence) [2, 4] | Weed control (% of weed control on a scale of 0-100, 100 indicating total prevention of weed emergence) [2, 5]
